Data taken from ChEMBL document CHEMBL2021794, “Synthesis, σ₁, σ₂-receptors binding affinity and antiproliferative action of new C1-substituted adamantanes” (Bioorg Med Chem, 2012).
pIC50: −log10 of the molar value. Active and inactive are the calls of the source. No cut-off for these calls is given here.

Tests used:
IGROV-1 [1] = assay: Induction of apoptosis in human IGROV1 cells assessed as early apoptotic cells at 15 uM after 24 hrs by Annexin V/7-AAD staining based flow cytometry (reference value: 9%); assay type: functional
BXPC-3 [2] = assay: Induction of apoptosis in human BxPC3 cells assessed as cleaved caspase-3 containing cells at 0.5 uM after 24 hrs by FACS analysis (reference value: 10%); assay type: functional
[3] = (§1) Growth inhibition of NHDF cells after 48 hrs by SRB assay; assay type: cell-based; conditions: human, NHDF cells
NHDF = assay: as §1; assay type: cell-based; conditions: human, nhdf, 48 h
PC-3 [4] = assay: Induction of apoptosis in human PC3 cells assessed as early apoptotic cells at 0.5 uM after 24 hrs by Annexin V/7-AAD staining based flow cytometry (reference value: 5%); assay type: functional
BXPC-3 [5] = assay: Cell cycle arrest in human BxPC3 cells assessed as accumulation at >G2 phase at 15 uM after 24 hrs by propidium iodide staining based flow cytometry (reference value: 6%); assay type: functional
IGROV-1 [6] = assay: Cell cycle arrest in human IGROV1 cells assessed as accumulation at S phase at 15 uM after 24 hrs by propidium iodide staining based flow cytometry (reference value: 29%); assay type: functional
PC-3 [7] = assay: Induction of apoptosis in human PC3 cells assessed as early apoptotic cells at 15 uM after 24 hrs by Annexin V/7-AAD staining based flow cytometry (reference value: 5%); assay type: functional
MCF7 = assay: Cytotoxicity against human MCF7 cells after 48 hrs by trypan blue assay; assay type: functional, cell-based
BXPC-3 [8] = assay: Cell cycle arrest in human BxPC3 cells assessed as accumulation at S phase at 5 uM after 24 hrs by propidium iodide staining based flow cytometry (reference value: 33%); assay type: functional
IGROV-1 [9] = assay: Cell cycle arrest in human IGROV1 cells assessed as accumulation at < G1 phase at 5 uM after 24 hrs by propidium iodide staining based flow cytometry (reference value: 4%); assay type: functional
BXPC-3 [10] = assay: Induction of apoptosis in human BxPC3 cells assessed as cleaved caspase-3 containing cells at 50 uM after 24 hrs by FACS analysis (reference value: 10%); assay type: functional
IGROV-1 [11] = assay: Cell cycle arrest in human IGROV1 cells assessed as accumulation at >G2 phase at 15 uM after 24 hrs by propidium iodide staining based flow cytometry (reference value: 21%); assay type: functional
PC-3 [12] = assay: Cell cycle arrest in human PC3 cells assessed as accumulation at >G2 phase at 5 uM after 24 hrs by propidium iodide staining based flow cytometry (reference value: 6%); assay type: functional
IGROV-1 [13] = assay: Induction of apoptosis in human IGROV1 cells assessed as healthy cells at 50 uM after 24 hrs by Annexin V/7-AAD staining based flow cytometry (reference value: 86%); assay type: functional
OVCAR-5 [14] = assay: Growth inhibition of human OVCAR5 cells after 48 hrs by SRB assay; assay type: functional; conditions: OVCAR-5, 48 h
NCI-H69 = assay: Growth inhibition of human NCI-H69 cells after 48 hrs by SRB assay; assay type: functional; conditions: NCI-H69, 48 h
BXPC-3 [15] = assay: Cell cycle arrest in human BxPC3 cells assessed as accumulation at >G2 phase at 0.5 uM after 24 hrs by propidium iodide staining based flow cytometry (reference value: 6%); assay type: functional
BXPC-3 [16] = assay: Cell cycle arrest in human BxPC3 cells assessed as accumulation at G1 phase at 0.5 uM after 24 hrs by propidium iodide staining based flow cytometry (reference value: 41%); assay type: functional
[17] = Growth inhibition of human MSC cells after 48 hrs by SRB assay; assay type: cell-based
BXPC-3 [18] = assay: Cell cycle arrest in human BxPC3 cells assessed as accumulation at S phase at 15 uM after 24 hrs by propidium iodide staining based flow cytometry (reference value: 33%); assay type: functional
PC-3 [19] = assay: Induction of apoptosis in human PC3 cells assessed as late apoptotic cells at 0.5 uM after 24 hrs by Annexin V/7-AAD staining based flow cytometry (reference value: 2%); assay type: functional
[20] = Displacement of [3H](+)1-DTG from sigma-2 receptor expressed in rat cerebral cortex membranes after 2 hrs by liquid scintillation spectroscopy; assay type: cell membranes, Membrane
IGROV-1 [21] = assay: Induction of apoptosis in human IGROV1 cells assessed as early apoptotic cells at 50 uM after 24 hrs by Annexin V/7-AAD staining based flow cytometry (reference value: 9%); assay type: functional
PC-3 [22] = assay: Cell cycle arrest in human PC3 cells assessed as accumulation at < G1 phase at 5 uM after 24 hrs by propidium iodide staining based flow cytometry (reference value: 4%); assay type: functional
BXPC-3 [23] = assay: Induction of apoptosis in human BxPC3 cells assessed as late apoptotic cells at 0.5 uM after 24 hrs by Annexin V/7-AAD staining based flow cytometry (reference value: 9%); assay type: functional
PC-3 [24] = assay: Induction of apoptosis in human PC3 cells assessed as cleaved caspase-3 containing cells at 0.5 uM after 24 hrs by FACS analysis (reference value: 3%); assay type: functional
PC-3 [25] = assay: Cell cycle arrest in human PC3 cells assessed as accumulation at G1 phase at 5 uM after 24 hrs by propidium iodide staining based flow cytometry (reference value: 36%); assay type: functional
BXPC-3 [26] = assay: Cell cycle arrest in human BxPC3 cells assessed as accumulation at G1 phase at 50 uM after 24 hrs by propidium iodide staining based flow cytometry (reference value: 41%); assay type: functional
OVCAR-5 [27] = assay: Cytotoxicity against human OVCAR5 cells after 48 hrs by trypan blue assay; assay type: functional, cell-based
BXPC-3 [28] = assay: Induction of apoptosis in human BxPC3 cells assessed as cleaved caspase-3 containing cells at 5 uM after 24 hrs by FACS analysis (reference value: 10%); assay type: functional
IGROV-1 [29] = assay: Induction of apoptosis in human IGROV1 cells assessed as total apoptotic death cells at 0.5 uM after 24 hrs by Annexin V/7-AAD staining based flow cytometry (reference value: 13%); assay type: functional
HCT-15 = assay: Cytotoxicity against human HCT15 cells after 48 hrs by trypan blue assay; assay type: functional, cell-based
PC-3 [30] = assay: Induction of apoptosis in human PC3 cells assessed as cleaved caspase-3 containing cells at 5 uM after 24 hrs by FACS analysis (reference value: 3%); assay type: functional
PC-3 [31] = assay: Cell cycle arrest in human PC3 cells assessed as accumulation at < G1 phase at 50 uM after 24 hrs by propidium iodide staining based flow cytometry (reference value: 4%); assay type: functional
DU-145 = assay: Cytotoxicity against human DU145 cells after 48 hrs by trypan blue assay; assay type: functional, cell-based
Mus musculus = assay: Toxicity in SCID mouse assessed as mortality at 40 mg/kg, ip after 3 to 4 weeks chronic treatment; assay type: organism-based; parameters: dose 40 mg/kg, route intraperitoneal; conditions: in vivo
SK-HEP1 = assay: Growth inhibition of human SKHEP1 cells after 48 hrs by SRB assay; assay type: functional; conditions: SK-HEP1, 48 h
IGROV-1 [32] = assay: Induction of apoptosis in human IGROV1 cells assessed as cleaved caspase-3 containing cells at 5 uM after 24 hrs by FACS analysis (reference value: 4%); assay type: functional
PC-3 [33] = assay: Cell cycle arrest in human PC3 cells assessed as accumulation at G2 phase at 5 uM after 24 hrs by propidium iodide staining based flow cytometry (reference value: 13%); assay type: functional
[34] = read-out: LC50 (the source's name)

## CN1CCN(c2ccc(C(c3ccccc3)C34CC5CC(CC(C5)C3)C4)cc2)CC1 (stereo not drawn)
IGROV-1 [1]
  Activity: 18%
BXPC-3 [2]
  Activity: 3%
[3]
  GI50 at 48 h: 5.3 µM
NHDF
  LC50: 100 µM
  TGI: 9.6 µM
PC-3 [4]
  Activity: 3%
BXPC-3 [5]
  Activity: 5%
IGROV-1 [6]
  Activity: 27%
PC-3 [7]
  Activity: 6%
MCF7
  Activity: Active
BXPC-3 [8]
  Activity: 30%
IGROV-1 [9]
  Activity: 5%
BXPC-3 [10]
  Activity: 16%
IGROV-1 [11]
  Activity: 20%
PC-3 [12]
  Activity: 5%
IGROV-1 [13]
  Activity: 31%
OVCAR-5 [14]
  GI50: 8 µM
  TGI: 41.9 µM
OVCAR-5 [14]; [34]
  CC50: 94.5 µM
NCI-H69
  GI50: 7.09 µM
NCI-H69; [34]
  CC50: 100 µM
BXPC-3 [15]
  Activity: 8%
BXPC-3 [16]
  Activity: 37%
[17]; MSC cells
  GI50 at 48 h: 16.9 µM
[17]; msc, 48 h
  LC50: 91.56 µM
  TGI: 54.21 µM
BXPC-3 [18]
  Activity: 19%
PC-3 [19]
  Activity: 1%
[20]
  pIC50: 7.42
IGROV-1 [21]
  Activity: 46%
PC-3 [22]
  Activity: 9%
BXPC-3 [23]
  Activity: 6%
PC-3 [24]
  Activity: 1%
PC-3 [25]
  Activity: 34%
BXPC-3 [26]
  Activity: 33%
OVCAR-5 [27]
  Activity: Active
BXPC-3 [28]
  Activity: 5%
IGROV-1 [29]
  Activity: 10%
HCT-15
  Activity: Active
PC-3 [30]
  Activity: 2%
PC-3 [31]
  Activity: 10%
DU-145
  Activity: Active
Mus musculus
  Activity: Non-toxic
SK-HEP1
  GI50: 6.05 µM
  TGI: 28.4 µM
SK-HEP1; [34]
  CC50: 77.6 µM
IGROV-1 [32]
  Activity: 7%
PC-3 [33]
  Activity: 13%
